Results from patent US20260250318A1, “COMPOSITIONS AND METHODS FOR CROSSING THE BLOOD BRAIN BARRIER” (VOYAGER THERAPEUTICS, INC., priority 2022, published 2026).

Columns and labels:
Conditions in all cases: synthetic library passage 3, intravenous, relative to wild-type AAV9
[1] = tested on: brain, spinal cord, and DRG of the NHPs; test: NGS fold enrichment of synthetic library (passage 3) in NHPs, first cross-species screen; assay type: in vivo, cynomolgus macaques (Macaca fascicularis)
In short: (§1)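 Passage-3 synthetic capsid library given intravenously […] to NHPs (2-4 years) and BALB/c or C57Bl/6 mice (n=3, 6-8 weeks). After e.g. 28 days, tissue RNA was RT-PCR amplified and NGS-sequenced; values are fold enrichment of each variant relative to wild-type AAV9.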

brain [2] = test: NGS fold enrichment of synthetic library (passage 3) in BALB/c mice, first cross-species screen; assay type: in vivo
In short: as §1

brain [3] = test: NGS fold enrichment of synthetic library (passage 3) in C57Bl/6 mice, first cross-species screen; assay type: in vivo
In short: as §1

[4] = RNA from spinal cord of NHPs, NGS
[5] = RNA from brain of BALB/c mice, NGS
[6] = RNA from brain of C57Bl/6 mice, NGS

Sequence	Fold enrichment over AAV9 in the brain of NHPs ([1]; RNA NGS, brain of NHPs)	Fold enrichment over AAV9 in the spinal cord of NHPs ([1]; RNA NGS, spinal cord of NHPs)	Fold enrichment over AAV9 in the brain of Mice (BALB/c) (brain [2]; RNA NGS, brain of BALB/c mice)	Fold enrichment over AAV9 in the brain of Mice (C57Bl/6) (brain [3]; RNA NGS, brain of C57Bl/6 mice)	Fold enrichment over AAV9 in the brain of NHPs ([1]; RNA from brain of NHPs, NGS)	Fold enrichment over AAV9 in the spinal cord of NHPs [1, 4]	Fold enrichment over AAV9 in the brain of Mice (BALB/c) (brain [2]; [5])	Fold enrichment over AAV9 in the brain of Mice (C57Bl/6) (brain [3]; [6])
GSGQHSPHALNQQT	1.064 fold	1.412 fold	0.573 fold	0.885 fold	–	–	–	–
GSGFGPQTGQNQQT	2.964 fold	2.861 fold	0.849 fold	1.280 fold	–	–	–	–
GSGQMKDLHRNQQT	1.014 fold	1.068 fold	0.506 fold	0.587 fold	–	–	–	–
GSGQNLHSGLPQQT	–	–	–	–	1.363 fold	1.594 fold	0.592 fold	1.054 fold
GSGQNQYSIPVAQT	1.891 fold	1.194 fold	0.297 fold	0.511 fold	–	–	–	–
GVVHITNSGQNQQT	1.969 fold	0.504 fold	0.846 fold	0.794 fold	–	–	–	–
GSAGISPSGQNQQT	1.797 fold	1.812 fold	0.622 fold	0.784 fold	–	–	–	–
GSAAMSVRGQNQQT	1.029 fold	2.386 fold	0.287 fold	0.202 fold	–	–	–	–
GSGQNQQTKVGHSA	1.079 fold	1.256 fold	1.019 fold	0.669 fold	–	–	–	–
GSGQSREISLNQQT	1.088 fold	6.954 fold	0.282 fold	0.594 fold	–	–	–	–
GSGQNQQPNSGSMT	1.064 fold	0.925 fold	0.339 fold	0.588 fold	–	–	–	–
GDSSSRISGQNQQT	–	–	–	–	1.151 fold	3.787 fold	0.348 fold	0.916 fold
GSGQSHRDVLNQQT	1.872 fold	15.082 fold	0.280 fold	0.138 fold	–	–	–	–
GSGQNQQSMADHTT	1.494 fold	1.728 fold	0.215 fold	0.428 fold	–	–	–	–
GNGQNQQHSILHGT	1.435 fold	0.000 fold	0.415 fold	0.777 fold	–	–	–	–
GSGQLPQSGLNQQT	–	–	–	–	1.218 fold	1.504 fold	0.318 fold	0.641 fold
